Data reported in ChEMBL document CHEMBL1201862, “PubChem BioAssay data set” (2004).
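Grown in 96-well plates, cells were treated for 48 hours with each compound at five concentrations. Insufficient inhibition: endpoint recorded as highest concentration tested. GI50: concentration for 50% inhibition of growth.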 Activity calls are given as the source filed them. No stated cut-off is given here; in the data, active = GI50 up to about 1.1 µM and inactive = higher.

Columns and labels:
Experiment in all cases: NCI-60 cell line screen, 48 h
786-0 = tested on: 786-0
A498 = tested on: A498
A549 = tested on: A549
ACHN = tested on: ACHN
BT-549 = tested on: BT-549
CCRF-CEM = tested on: CCRF-CEM
COLO 205 = tested on: COLO 205
DU-145 = tested on: DU-145
EKVX = tested on: EKVX
HCT-116 = tested on: HCT-116
HCT-15 = tested on: HCT-15
HL-60 = tested on: HL-60
HOP-62 = tested on: HOP-62
HOP-92 = tested on: HOP-92
HT-29 = tested on: HT-29
Hs-578T = tested on: Hs-578T
IGROV-1 = tested on: IGROV-1
K562 = tested on: K562
KM12 = tested on: KM12
LOX IMVI = tested on: LOX IMVI
M14 = tested on: M14
MCF7 = tested on: MCF7
MDA-MB-231 = tested on: MDA-MB-231
MDA-MB-435 = tested on: MDA-MB-435
MDA-N = tested on: MDA-N
MOLT-4 = tested on: MOLT-4
Malme-3M = tested on: Malme-3M
NCI-H226 = tested on: NCI-H226
NCI-H23 = tested on: NCI-H23
NCI-H460 = tested on: NCI-H460
NCI/ADR-RES = tested on: NCI/ADR-RES
OVCAR-3 = tested on: OVCAR-3
OVCAR-4 = tested on: OVCAR-4
OVCAR-5 = tested on: OVCAR-5
PC-3 = tested on: PC-3
RPMI-8226 = tested on: RPMI-8226
RXF 393 = tested on: RXF 393
SF-268 = tested on: SF-268
SF-539 = tested on: SF-539
SK-MEL-28 = tested on: SK-MEL-28
SK-MEL-2 = tested on: SK-MEL-2
SK-MEL-5 = tested on: SK-MEL-5
SK-OV-3 = tested on: SK-OV-3
SN12C = tested on: SN12C
SNB-19 = tested on: SNB-19
SNB-75 = tested on: SNB-75
SR = tested on: SR
SW-620 = tested on: SW-620
T47D = tested on: T47D
TK-10 = tested on: TK-10
U-251 = tested on: U-251
UACC-257 = tested on: UACC-257
UACC-62 = tested on: UACC-62
UO-31 = tested on: UO-31

With `Nc1nc(Nc2ccccc2)sc1C(=O)c1ccco1` the GI50 (786-0) was 12.7 µM (inactive), the GI50 (A498) was 17.8 µM (inactive) and the GI50 (A549) was 17.1 µM (inactive). For the same compound, the GI50 (ACHN) was 19.2 µM (inactive), the GI50 (BT-549) was 23.2 µM (inactive) and the GI50 (CCRF-CEM) was 3.62 µM (inactive). The GI50 (COLO 205) was 13.2 µM (inactive), the GI50 (DU-145) was 14.7 µM (inactive) and the GI50 (EKVX) was 15.3 µM (inactive). For the same compound, the GI50 (HCT-116) was 12.8 µM (inactive), the GI50 (HCT-15) was 12.2 µM and the GI50 (HL-60) was 14.1 µM (inactive). The GI50 (HOP-62) was 27.5 µM (inactive), the GI50 (HOP-92) was 35.6 µM (inactive) and the GI50 (HT-29) was 14.4 µM (inactive). For the same compound, the GI50 (Hs-578T) was 13.3 µM (inactive), the GI50 (IGROV-1) was 15.6 µM (inactive) and the GI50 (K562) was 8.55 µM (inactive). For the same compound, the GI50 (KM12) was 11 µM (inactive), the GI50 (LOX IMVI) was 15.9 µM (inactive) and the GI50 (M14) was 20.9 µM (inactive). The GI50 (MCF7) was 7.74 µM (inactive), the GI50 (MDA-MB-231) was 34.7 µM (inactive) and the GI50 (MDA-MB-435) was 16.4 µM (inactive). The GI50 (MDA-N) was 17.2 µM (inactive), the GI50 (MOLT-4) was 13 µM (inactive) and the GI50 (Malme-3M) was 26.9 µM (inactive). The GI50 (NCI-H226) was 21.3 µM (inactive), the GI50 (NCI-H23) was 14.6 µM (inactive) and the GI50 (NCI-H460) was 12.8 µM (inactive). For the same compound, the GI50 (NCI/ADR-RES) was 23.9 µM (inactive), the GI50 (OVCAR-3) was 5.69 µM (inactive) and the GI50 (OVCAR-4) was 19.9 µM (inactive). For the same compound, the GI50 (OVCAR-5) was 34 µM (inactive), the GI50 (PC-3) was 22.6 µM (inactive) and the GI50 (RPMI-8226) was 16.1 µM (inactive). For the same compound, the GI50 (RXF 393) was 14.2 µM (inactive), the GI50 (SF-268) was 26.7 µM (inactive) and the GI50 (SF-539) was 15.7 µM (inactive). The GI50 (SK-MEL-28) was 32.8 µM (inactive), the GI50 (SK-MEL-2) was 15.2 µM (inactive) and the GI50 (SK-MEL-5) was 11.1 µM (inactive). For the same compound, the GI50 (SK-OV-3) was 28.6 µM (inactive), the GI50 (SN12C) was 17.7 µM (inactive) and the GI50 (SNB-19) was 19.9 µM (inactive). The GI50 (SNB-75) was 15.1 µM (inactive), the GI50 (SR) was 5.97 µM (inactive) and the GI50 (SW-620) was 21.2 µM (inactive). For the same compound, the GI50 (T47D) was 14.9 µM (inactive), the GI50 (TK-10) was 14.2 µM (inactive) and the GI50 (U-251) was 22.7 µM (inactive). For the same compound, the GI50 (UACC-257) was 30.8 µM (inactive), the GI50 (UACC-62) was 20.8 µM (inactive) and the GI50 (UO-31) was 12.1 µM (inactive).
